Results from patent publication US20250281596A1, “IONIZABLE CATIONIC COMPOUND” (priority 2021, published 2025).

Assays:
BHK-21 cells = test: In vitro potency: transfection of BHK-21 cells, 96-well imaging (Cytation 5); assay type: cell-based; conditions: LNPs encapsulating saRNA expressing H5 and N1, FIG. 3
Procedure: For LNPs prepared with SL16, SL17, SL18, and SL21, a similar assay was performed in a 96-well plate using BHK-21 cells and analysed using a Cytation 5 Cell Imaging Multimode Reader (Agilent). The results of this assay were analysed in the same way as described for the flow cytometry assay, except only an H5-antibody was used for detection. In vitro transfection potency was determined for LNPs containing lipids SL16, SL17, SL18, and SL21. […] SL16 LNP, SL17 LNP, and SL18 LNP were formulated using a flow-rate ratio of 2:1. SL17 LNP2, SL18 LNP2, and SL21 were formulated using a flow-rate ratio of 3:1 (FIG. 3).

physchem = assay type: physicochemical; conditions: saRNA-LNP with the lipid; TNS, pH 4 to 9.5, 25° C.; read-out: Apparent pKa
Procedure: In a black 96-well plate, solutions of saRNA-LNP (final assay concentration 2 μg/mL total RNA) in a series of buffers ranging from pH 4 to 9.5 were prepared. Buffers between pH 4 to 7.6 were prepared from disodium phosphate and citric acid. Buffers from 7.8 to 9.5 were prepared by titrating tris buffer with 10 N sodium hydroxide. To each well was added 6-(p-Toluidino)-2-naphthalenesulfonic acid sodium salt (TNS) in water to a final assay concentration of 6 μM. The fluorescence was read on a plate reader at 25° C. with an excitation setting of 321 nm and an emission setting of 445 nm. The intensity values were plotted as a function of pH using GraphPad Prism and were fit with a sigmoidal dose response curve. The apparent pKa was determined as the EC50 of this curve where half of the ionizable amines are expected to be protonated (see FIG. 1).

SMILES	Ability to transfect cells (H5-antibody detection) (BHK-21 cells)	pKa (physchem)
CCCCCCCCCC(CCCCCCCCC(=O)OCC(CCCC)CCCCCC)OC(=O)C1CCN(CCCO)CC1 (stereo not drawn) [SL16]	able to transfect BHK-21 cells in vitro	
CCCCCCCCCC(CCCCCCCCOC(=O)CC(CCCC)CCCCCC)OC(=O)CC1CCN(CCCO)CC1 (stereo not drawn) [SL21]	able to transfect BHK-21 cells in vitro	
CCCCCCCCCC(CCCCCCCCC(=O)OCC(CCCC)CCCCCC)OC(=O)CCC1CCN(CCCO)CC1 (stereo not drawn) [SL18]	able to transfect BHK-21 cells in vitro	
CCCCCCCCCC(CCCCCCCCC(=O)OCC(CCCC)CCCCCC)OC(=O)CCC1CCN(C)CC1 (stereo not drawn) [SL15]		7.13
CCCCCCCCCC(CCCCCCCCC(=O)OCC(CCCC)CCCCCC)OC(=O)CC1CCN(CCCO)CC1 (stereo not drawn) [SL17]	able to transfect BHK-21 cells in vitro	
CCCCCCCCCC(CCCCCCCCC(=O)OCC(CCCC)CCCCCC)OC(=O)CC1CCN(C)CC1 (stereo not drawn) [SL14]		6.63
